# Measurements taken from patent US20100076006A1, “Topiramate Plus Naltrexone for the Treatment of Addictive Disorders” (UNIVERSITY OF VIRGINIA PATENT FOUNDATION, priority 2007, published 2010).
# Structures can show the parent of a compound that is named as a salt.
# What was measured:
# [1] = tested on: alcohol-preferring (P) rats; test: Combined topiramate and naltrexone on alcohol consumption in animal model; format: in vivo; conditions: 8 rats
# Method: FIG. 8 graphically illustrates the combined effect of topiramate and naltrexone on alcohol consumption in alcohol-preferring (P) rats. Rats received either vehicle, topiramate at 5 mg/kg, topiramate at 10 mg/kg, naltrexone at 1/mg/kg and topiramate at 5 mg/kg, naltrexone at 1/mg/kg and topiramate at 10 mg/kg, or naltrexone at 1 mg/kg. Each data point represents the mean (±SE) of 8 rats as a change from baseline.
# No significant differences were observed following vehicle injection. Data are plotted as change from baseline consumption, and each data point represents a mean (±SE) of 8 rats.
# alcohol dependence = conditions: topiramate up to 300 mg per day, 12 weeks, vs. placebo; cited from earlier work
# EOA and LOA alcoholics = conditions: ondansetron 1, 4, 16 μg/kg twice daily (particularly 4 μg/kg), compared with LOA; cited from earlier work
# alcoholism treatment = conditions: medication alone; cited from earlier work
# rhesus monkeys = test: Naltrexone's effects on alcohol drinking in non-human primates, fixed ratio schedule of reinforcement; format: in vivo; conditions: three non food deprived rhesus monkeys, 3 hour sessions, naltrexone 0.1, 0.3, 1.0, 3.0 g/kg, water concurrently available
# Method: FIG. 3 graphically illustrates the effects of Naltrexone on alcohol consumption in non-human primates (rhesus monkeys). Naltrexone was administered at 0.1 (∘), 0.3 ([…]), 1.0 (□) or 3.0 (▪) […]. The ordinate represents cumulative deliveries as percent change from baseline. The abscissa represents time in 10 minute blocks.
# This study was principally conducted as a collaboration with Richard Meisch and Alan Boyle. […] During these 3 hour sessions, both water and alcohol were concurrently available.
SMILES,"alcohol consumption, change from baseline ([1]; topiramate alone, 10 mg/kg intraperitoneally, effect not yet significant)",craving (alcohol dependence),days of abstinence (alcohol dependence),"drinks per day, drinking days, and drinks per drinking day (alcohol dependence)",drinking (EOA and LOA alcoholics),typical effect sizes (alcoholism treatment),alcohol consumption (8% w/v) (rhesus monkeys),"alcohol consumption, change from baseline ([1]; naltrexone alone, 1 mg/kg intraperitoneally)"
"CC1(C)O[C@@H]2[C@@H](CO[C@@]3(COS(N)(=O)=O)OC(C)(C)O[C@@H]23)O1 [topiramate, 2,3:4,5-Bis-O-(1-methylethylidene)-beta-D-fructopyranose sulfamate]",only modestly decreased,significantly less,significantly more,significantly fewer,,,,
"Cc1nccn1CC1CCc2c(c3ccccc3n2C)C1=O (stereo not drawn) [ondansetron, 9-methyl-3-[(2-methyl-1H-imidazol-1-yl)methyl]-1,2,3,9-tetrahydrocarbazol-4-one]",,,,,significant reductions,0.2±0.5,,
"O=C1CC[C@@]2(O)[C@H]3Cc4ccc(O)c5c4[C@@]2(CCN3CC2CC2)[C@H]1O5 [naltrexone, 17-(Cyclopropylmethyl)-4,5a-epoxy-3,14-dihydroxymorphinan-6-one hydrochloride]",,,,,,0.2±0.5,dose-dependent decreases,did not affect alcohol consumption
